Results from ChEMBL document CHEMBL3351286, “Strategies to inhibit tumor associated integrin receptors: rationale for dual and multi-antagonists” (J Med Chem, 2014).

What was measured:
[1] = molecular target: Integrin alpha-IIb/beta-3 (Homo sapiens, UniProt P05106+P08514); assay: Antagonist activity at alpha2bbeta3 integrin receptor (unknown origin) by cell-free ELISA; type: protein-complex assay
[2] = molecular target: Integrin alpha-V/beta-1 (Homo sapiens, UniProt P05556+P06756); assay: Antagonist activity at alphavbeta1 integrin receptor (unknown origin) by cell-free ELISA; type: protein-complex assay
[3] = molecular target: T1, Integrin alpha-V/beta-5 (Homo sapiens, UniProt P06756+P18084); assay: Antagonist activity at alphavbeta5 integrin receptor (unknown origin) by cell-based ELISA
[4] = molecular target: Integrin alpha-V/beta-8 (Homo sapiens, UniProt P06756+P26012); assay: Antagonist activity at alphavbeta8 integrin receptor (unknown origin) by cell-free ELISA; type: protein-complex assay
[5] = molecular target: Integrin alpha2/beta1 (Homo sapiens, UniProt P05556+P17301); assay: Antagonist activity at alpha2beta1 integrin receptor (unknown origin) by cell-free ELISA; type: protein-complex assay
[6] = molecular target: Integrin alpha-10/Integrin beta-1 (Homo sapiens, UniProt O75578+P05556); assay: Antagonist activity at alpha10beta1 integrin receptor (unknown origin) by cell-free ELISA; type: protein-complex assay
[7] = molecular target: Integrin alpha-V/beta-3 (Homo sapiens, UniProt P05106+P06756); assay: Antagonist activity at alphavbeta3 integrin receptor (unknown origin) by cell-free ELISA; type: protein-complex assay
[8] = molecular target: T1, Integrin alpha-V/beta-5; assay: Antagonist activity at alphavbeta5 integrin receptor (unknown origin) by cell-free ELISA; type: protein-complex assay
[9] = molecular target: Integrin alpha-5/beta-1 (Homo sapiens, UniProt P05556+P08648); assay: Antagonist activity at alpha5beta1 integrin receptor (unknown origin) by cell-free ELISA; type: protein-complex assay
[10] = molecular target: Integrin alpha-V/beta-6 (Homo sapiens, UniProt P06756+P18564); assay: Antagonist activity at alphavbeta6 integrin receptor (unknown origin) by cell-free ELISA; type: protein-complex assay
[11] = molecular target: T2, Integrin alpha-4/beta-7 (Homo sapiens, UniProt P13612+P26010); assay: Antagonist activity at alpha4beta7 integrin receptor (unknown origin) by cell-free ELISA; type: protein-complex assay
T2 sequence (P13612 whole entry): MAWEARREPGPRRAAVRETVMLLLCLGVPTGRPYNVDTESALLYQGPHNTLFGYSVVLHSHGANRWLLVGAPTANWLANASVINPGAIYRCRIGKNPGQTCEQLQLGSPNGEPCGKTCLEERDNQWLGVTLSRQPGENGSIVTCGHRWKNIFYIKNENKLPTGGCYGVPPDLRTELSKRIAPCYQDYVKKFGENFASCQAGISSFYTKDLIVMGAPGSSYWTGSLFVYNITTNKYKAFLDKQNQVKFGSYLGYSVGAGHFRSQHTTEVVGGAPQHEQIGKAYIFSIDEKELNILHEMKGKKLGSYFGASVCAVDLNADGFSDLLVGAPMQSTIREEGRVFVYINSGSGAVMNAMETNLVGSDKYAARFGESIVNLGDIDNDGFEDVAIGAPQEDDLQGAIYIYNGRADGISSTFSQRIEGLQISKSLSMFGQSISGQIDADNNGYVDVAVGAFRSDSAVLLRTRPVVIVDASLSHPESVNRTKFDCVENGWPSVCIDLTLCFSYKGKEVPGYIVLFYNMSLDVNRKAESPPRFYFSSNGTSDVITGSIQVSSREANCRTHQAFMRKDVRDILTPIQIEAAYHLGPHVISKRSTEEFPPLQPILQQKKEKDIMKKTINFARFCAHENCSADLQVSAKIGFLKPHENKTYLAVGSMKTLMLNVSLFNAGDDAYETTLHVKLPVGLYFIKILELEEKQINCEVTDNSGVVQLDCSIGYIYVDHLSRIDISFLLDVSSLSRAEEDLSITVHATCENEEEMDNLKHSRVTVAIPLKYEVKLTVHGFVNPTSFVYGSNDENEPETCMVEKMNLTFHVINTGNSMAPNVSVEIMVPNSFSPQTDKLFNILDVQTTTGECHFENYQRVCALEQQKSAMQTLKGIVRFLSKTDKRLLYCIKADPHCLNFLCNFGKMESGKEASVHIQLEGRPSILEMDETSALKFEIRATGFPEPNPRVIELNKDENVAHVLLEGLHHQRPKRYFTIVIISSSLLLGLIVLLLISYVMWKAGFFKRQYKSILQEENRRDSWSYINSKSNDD
T2 sequence (P26010 whole entry): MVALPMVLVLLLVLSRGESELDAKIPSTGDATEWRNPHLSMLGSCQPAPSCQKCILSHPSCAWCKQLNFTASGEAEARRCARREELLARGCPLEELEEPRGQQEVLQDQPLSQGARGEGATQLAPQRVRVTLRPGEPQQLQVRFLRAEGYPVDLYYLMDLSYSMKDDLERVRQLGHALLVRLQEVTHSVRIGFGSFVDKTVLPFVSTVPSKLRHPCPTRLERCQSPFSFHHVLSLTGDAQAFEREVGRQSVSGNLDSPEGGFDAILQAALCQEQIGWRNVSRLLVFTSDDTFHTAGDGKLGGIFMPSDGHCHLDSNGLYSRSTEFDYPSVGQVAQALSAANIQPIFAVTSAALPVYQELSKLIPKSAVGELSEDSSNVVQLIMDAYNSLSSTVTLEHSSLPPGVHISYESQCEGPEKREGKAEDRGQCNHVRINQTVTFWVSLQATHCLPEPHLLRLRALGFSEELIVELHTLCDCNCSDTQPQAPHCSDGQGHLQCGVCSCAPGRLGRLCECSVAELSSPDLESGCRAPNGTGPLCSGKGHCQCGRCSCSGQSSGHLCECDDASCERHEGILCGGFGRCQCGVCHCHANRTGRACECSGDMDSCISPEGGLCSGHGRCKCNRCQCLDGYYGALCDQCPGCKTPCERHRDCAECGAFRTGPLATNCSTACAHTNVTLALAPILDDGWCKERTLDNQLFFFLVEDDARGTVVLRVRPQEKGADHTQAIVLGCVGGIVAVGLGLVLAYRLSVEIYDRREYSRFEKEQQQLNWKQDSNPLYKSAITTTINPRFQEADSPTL

Integrin alpha2/beta1, sequence (P05556 whole entry): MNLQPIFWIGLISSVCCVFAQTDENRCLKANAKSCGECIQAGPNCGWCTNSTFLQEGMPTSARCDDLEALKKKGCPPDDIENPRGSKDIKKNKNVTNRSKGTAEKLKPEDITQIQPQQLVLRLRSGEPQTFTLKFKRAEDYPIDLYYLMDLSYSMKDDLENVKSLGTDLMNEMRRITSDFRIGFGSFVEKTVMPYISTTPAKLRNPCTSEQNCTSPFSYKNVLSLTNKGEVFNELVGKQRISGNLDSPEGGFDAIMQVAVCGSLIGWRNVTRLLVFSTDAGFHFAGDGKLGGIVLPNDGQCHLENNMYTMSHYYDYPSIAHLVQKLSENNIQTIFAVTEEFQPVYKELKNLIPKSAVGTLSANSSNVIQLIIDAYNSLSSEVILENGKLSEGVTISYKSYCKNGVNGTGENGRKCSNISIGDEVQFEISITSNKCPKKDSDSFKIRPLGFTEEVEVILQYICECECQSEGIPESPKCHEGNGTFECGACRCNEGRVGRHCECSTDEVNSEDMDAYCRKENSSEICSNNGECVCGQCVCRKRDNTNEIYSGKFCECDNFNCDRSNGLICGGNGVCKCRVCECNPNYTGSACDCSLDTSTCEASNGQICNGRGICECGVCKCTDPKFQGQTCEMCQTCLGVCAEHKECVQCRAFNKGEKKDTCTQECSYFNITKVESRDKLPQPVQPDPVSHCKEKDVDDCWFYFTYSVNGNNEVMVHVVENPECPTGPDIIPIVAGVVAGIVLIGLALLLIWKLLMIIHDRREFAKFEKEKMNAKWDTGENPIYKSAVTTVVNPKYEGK
Integrin alpha2/beta1, sequence (P17301 whole entry): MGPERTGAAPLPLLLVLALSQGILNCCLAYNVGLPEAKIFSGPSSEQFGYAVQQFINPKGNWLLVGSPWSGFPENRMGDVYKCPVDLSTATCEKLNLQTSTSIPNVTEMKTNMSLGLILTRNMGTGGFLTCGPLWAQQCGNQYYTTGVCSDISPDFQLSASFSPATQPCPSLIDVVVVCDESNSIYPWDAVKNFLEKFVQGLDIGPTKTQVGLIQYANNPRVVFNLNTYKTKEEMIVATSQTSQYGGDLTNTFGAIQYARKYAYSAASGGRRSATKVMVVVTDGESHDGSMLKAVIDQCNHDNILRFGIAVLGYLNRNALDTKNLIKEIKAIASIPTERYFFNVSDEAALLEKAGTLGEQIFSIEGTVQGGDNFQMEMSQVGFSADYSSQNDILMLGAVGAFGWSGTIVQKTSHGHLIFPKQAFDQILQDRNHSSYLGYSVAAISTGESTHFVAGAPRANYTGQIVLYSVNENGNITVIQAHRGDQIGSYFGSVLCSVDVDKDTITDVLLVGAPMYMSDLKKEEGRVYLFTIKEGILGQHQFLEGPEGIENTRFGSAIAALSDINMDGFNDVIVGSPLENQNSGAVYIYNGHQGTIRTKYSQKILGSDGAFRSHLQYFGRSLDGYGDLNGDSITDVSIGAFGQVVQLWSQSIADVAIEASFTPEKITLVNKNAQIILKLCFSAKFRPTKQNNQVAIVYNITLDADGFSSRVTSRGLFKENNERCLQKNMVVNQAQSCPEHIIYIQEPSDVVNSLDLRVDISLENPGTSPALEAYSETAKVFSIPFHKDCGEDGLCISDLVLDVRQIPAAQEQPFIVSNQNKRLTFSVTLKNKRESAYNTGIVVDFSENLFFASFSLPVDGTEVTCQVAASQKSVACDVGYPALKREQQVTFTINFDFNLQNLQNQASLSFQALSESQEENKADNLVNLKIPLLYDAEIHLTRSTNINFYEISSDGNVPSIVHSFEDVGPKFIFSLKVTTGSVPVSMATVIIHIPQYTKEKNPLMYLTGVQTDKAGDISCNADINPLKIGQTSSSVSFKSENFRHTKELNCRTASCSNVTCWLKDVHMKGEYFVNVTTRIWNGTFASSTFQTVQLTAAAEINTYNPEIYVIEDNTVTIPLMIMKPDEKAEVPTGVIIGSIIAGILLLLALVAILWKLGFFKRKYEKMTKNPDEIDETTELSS
Integrin alpha-V/beta-8, sequence (P06756 31-889 limits assumed): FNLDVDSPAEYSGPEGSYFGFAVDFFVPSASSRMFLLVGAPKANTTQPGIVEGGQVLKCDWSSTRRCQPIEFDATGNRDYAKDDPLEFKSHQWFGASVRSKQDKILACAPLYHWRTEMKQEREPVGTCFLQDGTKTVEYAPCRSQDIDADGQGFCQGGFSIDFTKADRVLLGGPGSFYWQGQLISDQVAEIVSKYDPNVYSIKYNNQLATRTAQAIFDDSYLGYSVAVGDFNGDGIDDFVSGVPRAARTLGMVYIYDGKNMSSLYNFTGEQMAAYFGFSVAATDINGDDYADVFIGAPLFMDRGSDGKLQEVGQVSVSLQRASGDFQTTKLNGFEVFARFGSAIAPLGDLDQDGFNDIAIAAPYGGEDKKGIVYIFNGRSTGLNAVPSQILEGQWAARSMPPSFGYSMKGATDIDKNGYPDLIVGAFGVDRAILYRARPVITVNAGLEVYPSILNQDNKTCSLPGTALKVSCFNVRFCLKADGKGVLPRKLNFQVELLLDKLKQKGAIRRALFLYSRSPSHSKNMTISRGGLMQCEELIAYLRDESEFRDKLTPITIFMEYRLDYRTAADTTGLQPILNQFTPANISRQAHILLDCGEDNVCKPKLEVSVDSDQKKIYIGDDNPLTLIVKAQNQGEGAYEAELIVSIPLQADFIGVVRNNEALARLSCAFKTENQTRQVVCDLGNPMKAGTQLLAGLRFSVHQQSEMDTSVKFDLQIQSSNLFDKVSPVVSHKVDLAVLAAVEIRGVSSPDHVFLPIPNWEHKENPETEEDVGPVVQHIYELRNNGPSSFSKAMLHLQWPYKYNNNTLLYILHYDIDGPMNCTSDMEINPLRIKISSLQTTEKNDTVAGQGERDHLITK
Integrin alpha-V/beta-8, sequence (P06756 891-1048 limits assumed): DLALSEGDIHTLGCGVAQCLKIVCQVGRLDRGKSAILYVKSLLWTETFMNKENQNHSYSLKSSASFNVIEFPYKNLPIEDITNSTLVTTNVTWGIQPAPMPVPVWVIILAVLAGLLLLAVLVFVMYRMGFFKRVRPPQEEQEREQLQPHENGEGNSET
Integrin alpha-V/beta-8, sequence (P26012 43-769 limits assumed): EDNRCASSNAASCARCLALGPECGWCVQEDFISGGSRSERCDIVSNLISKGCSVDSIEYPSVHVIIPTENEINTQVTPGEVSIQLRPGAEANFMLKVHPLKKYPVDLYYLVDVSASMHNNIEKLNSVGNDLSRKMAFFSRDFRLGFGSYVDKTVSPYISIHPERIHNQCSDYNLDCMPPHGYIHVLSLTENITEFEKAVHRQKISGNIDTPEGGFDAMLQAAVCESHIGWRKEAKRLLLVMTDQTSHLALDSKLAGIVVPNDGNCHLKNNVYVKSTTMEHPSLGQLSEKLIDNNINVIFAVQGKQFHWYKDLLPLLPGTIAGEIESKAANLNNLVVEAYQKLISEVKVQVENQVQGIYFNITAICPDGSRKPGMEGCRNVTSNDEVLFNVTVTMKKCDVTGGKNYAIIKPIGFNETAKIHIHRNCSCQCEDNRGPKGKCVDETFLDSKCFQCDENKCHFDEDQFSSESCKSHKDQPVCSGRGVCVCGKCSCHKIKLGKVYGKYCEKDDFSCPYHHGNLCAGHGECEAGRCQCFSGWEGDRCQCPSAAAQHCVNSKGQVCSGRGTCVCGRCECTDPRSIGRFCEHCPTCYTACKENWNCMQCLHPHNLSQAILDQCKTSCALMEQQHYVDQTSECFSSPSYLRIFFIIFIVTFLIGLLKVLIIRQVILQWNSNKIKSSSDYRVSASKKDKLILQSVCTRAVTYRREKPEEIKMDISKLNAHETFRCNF
T1 sequence (P06756 31-889 limits assumed): as the sequence (P06756 31-889 limits assumed) above
T1 sequence (P06756 891-1048 limits assumed): as the sequence (P06756 891-1048 limits assumed) above
T1 sequence (P18084 24-799 limits assumed): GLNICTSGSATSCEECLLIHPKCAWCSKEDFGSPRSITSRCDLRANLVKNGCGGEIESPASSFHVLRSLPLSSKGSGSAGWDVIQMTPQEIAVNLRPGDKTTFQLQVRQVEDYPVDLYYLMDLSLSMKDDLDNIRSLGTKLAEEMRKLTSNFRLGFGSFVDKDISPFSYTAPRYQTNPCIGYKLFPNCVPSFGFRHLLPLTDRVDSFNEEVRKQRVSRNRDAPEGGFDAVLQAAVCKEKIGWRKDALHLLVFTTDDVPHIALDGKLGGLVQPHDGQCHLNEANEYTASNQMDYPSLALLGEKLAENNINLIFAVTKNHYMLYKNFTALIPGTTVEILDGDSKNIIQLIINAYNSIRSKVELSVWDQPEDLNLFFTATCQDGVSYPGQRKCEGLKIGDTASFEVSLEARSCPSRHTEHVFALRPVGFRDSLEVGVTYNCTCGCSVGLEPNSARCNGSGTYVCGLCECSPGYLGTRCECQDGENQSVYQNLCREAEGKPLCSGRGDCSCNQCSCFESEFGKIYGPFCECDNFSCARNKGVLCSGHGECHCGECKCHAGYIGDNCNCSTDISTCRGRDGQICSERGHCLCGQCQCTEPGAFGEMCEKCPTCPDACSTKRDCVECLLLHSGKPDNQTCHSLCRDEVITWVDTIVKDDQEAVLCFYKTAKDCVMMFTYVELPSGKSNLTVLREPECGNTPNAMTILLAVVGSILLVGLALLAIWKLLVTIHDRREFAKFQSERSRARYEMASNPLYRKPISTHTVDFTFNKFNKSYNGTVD

Row | IC50 [1] [nM] | IC50 [3] [nM] | IC50 [6] [nM] | SMILES | IC50 [2] [nM] | IC50 [4] [nM] | IC50 [5] [nM] | IC50 [7] [nM] | IC50 [8] [nM] | IC50 [9] [nM] | IC50 [10] [nM] | IC50 [11] [nM]
1 | > 5000 | 61 | > 5000 | CC(C)(C)c1cc(Br)cc([C@H](CC(=O)O)NC(=O)CNC(=O)c2cc(O)cc(NC3=NCC(O)CN3)c2)c1 (some centres undefined) | 1.8 | 0.2 | > 5000 | – | – | – | – | –
2 | – | – | – | COc1ccc(S(=O)(=O)N[C@@H](CNc2nc(C)nc(N3CCC(c4ccc5c(n4)NCCC5)CC3)c2C)C(=O)O)cc1 [GLPG-0187] | 1.3 | 1.2 | > 10000 | 3.7 | 2 | 7.7 | 1.4 | > 10000
